Patent publication US20150265661A1, “PREBIOTIC EFFECT OF SIALYLLACTOSE” (Trustees of Boston College, priority 2012, published 2015)

Assays:
[1] = tested on: Bifidobacteria sp. (ten strains of Table 2); test: Growth (OD 600 nm) and pH of bacterial strains in ZMB1 with oligosaccharide as sole carbon source; format: cell-based, Bifidobacterium longum, Bifidobacterium infantis; conditions: for utilization as a primary carbon source by ten different Bifidobacteria: concentrations indicated in FIGS. 4 and 5; for numbers of bifidobacteria: in vitro fermentation, vs control; for prebiotic effects on Bifidobacteria strains: sialyllactose alone, FIG. 5
[2] = tested on: Clostridium perfringens ATCC 13124; format: cell-based; conditions: 48 h, sole carbon source, FIG. 4
[3] = tested on: Escherichia coli W3110; test: Growth (OD 600 nm) and pH of bacterial strains in ZMB1 with oligosaccharide as sole carbon source; format: cell-based; conditions: 48 h, FIG. 4

Molecule | utilization as a primary carbon source by ten different Bifidobacteria [1] | numbers of bifidobacteria [1] | prebiotic effects on Bifidobacteria strains [1] | growth of C. perfringens [2] | pH in the culture of C. perfringens [2] | growth of E. coli [3] | pH in the culture of E. coli [3] | growth of the Bifidobacteria sp. ([1]; 48 h, sole carbon source (2'-FL 2 g/L, 3-FL 2 g/L, LDFT 1 g/L), vs control without substrate) | pH in the culture of Bifidobacteria ([1]; 48 h, sole carbon source, vs control without substrate)
CC(=O)N[C@H]1[C@H]([C@H](O)[C@H](O)CO)O[C@@](O[C@H]2[C@@H](O)[C@@H](CO)O[C@@H](O[C@H]3[C@H](O)[C@@H](O)C(O)O[C@@H]3CO)[C@@H]2O)(C(=O)O)C[C@@H]1O (some centres unmarked) [3′-SL, 3′-sialyllactose] | could utilize | significantly higher | showed prebiotic effects on some Bifidobacteria strains |  |  |  |  |  | 
lactodifucotetraose [LDFT] | could utilize | significantly higher |  | no significant increase | no significant increase on its growth and decrease in pH | no significant increase | no significant increase on its growth and decrease in pH | significantly increase | decrease the pH
CC(=O)N[C@H]1[C@H]([C@H](O)[C@H](O)CO)O[C@@](OC[C@H]2O[C@@H](O[C@H]3[C@H](O)[C@@H](O)[C@H](O)O[C@@H]3CO)[C@H](O)[C@@H](O)[C@H]2O)(C(=O)O)C[C@@H]1O [6′-SL, 6′-sialyllactose] | could utilize | significantly higher | showed prebiotic effects on some Bifidobacteria strains |  |  |  |  |  | 
